In patent US8658599B2, “Peptide for the prophylactic or therapeutic treatment of skin tumors in initial stages” (Digna Biotech, S.L., priority 2009, dated 2014):
Where no end group is shown, it is not given here.

Tests used:
TGF-β1 = target: T1, TGF-β1 (Homo sapiens, UniProt P01137); conditions: shown previously, WO 00/31135; cited from earlier work
T1 construct: host or cells: My-1-Lu cell line (so in the source)

[1] = test system: skin tumors in mice initiated with DMBA; assay: Tumor-promoting effect: TPA replaced by disitertide cream in DMBA-initiated mice; format: in vivo, Swiss albino mice; conditions: group 2
Description: The tumors were induced on the shaved dorsal skin of mice aged 6-8 weeks through a single topical application of DMBA (32 μg in 200 μl of acetone), followed by treatment twice a week with 12.5 μg of TPA in 200 μl of acetone (10^−4 M) for 12 weeks. In addition, groups of mice were treated with a topical formulation in the form of cream that contained disitertide or not, as specified below. Each week the number of tumors bigger than 2 mm in diameter were recorded in each mouse. At the end of the experiment, the animals were anesthetized and killed (32 weeks after the initiation with DMBA), and the tumors were fixed in 10% formaldehyde and embedded in paraffin for the histological studies.
(§1) In order to test the possible tumor-promoting effect of disitertide, TPA was replaced by a treatment with a topical formulation cream containing disitertide (group 2, consisting of 5 animals) or with vehicle only (group 1, consisting of 5 mice) during the promotion phase of chemical carcinogenesis. Similarly, the possible carcinogenic activity of disitertide was analyzed in a group of 5 mice by repeated applications of disitertide every 2 days for 23 weeks. Since papillomas appear at around 7-8 weeks post-initiation, mice initiated with DMBA and promoted with TPA were further treated with disitertide every 2 days for 4 and 12 weeks (groups 5 and 6, respectively, 10 animals each), in order to test whether disitertide could prevent skin carcinogenesis. Treatment with disitertide started in the same week in which mice were initiated with DMBA (week 0), and applications with this and TPA were performed on alternate days. As a control, a group of mice (group 4, consisting of 5 animals) were treated with vehicle only (control cream) for 12 weeks. Finally, a group of animals with tumors (group 7, consisting of 10 animals) were treated with disitertide every 2 days for 20 weeks from week 12 to week 32 after initiation with DMBA. This group of mice was included in order to test a possible anti-tumor effect of the peptide. Disitertide was applied at a dose of 60 μg in 200 μl of the topical formulation as cream, except for mice of group 7 in which the dose of disitertide was increased up to 120 μg (in 400 μl of cream).

normal skin = test system: normal skin; design: species or system mice; conditions: mouse, in vivo
Description: as §1, with “Disitertide was applied at a dose of 60 μg in 200 μl of the topical formulation as cream, except for mice of group 7 in which the dose of disitertide was increased up to 120 μg (in 400 μl of cream).” left out

T1 sequence (P01137 279-390 limits assumed, species assumed): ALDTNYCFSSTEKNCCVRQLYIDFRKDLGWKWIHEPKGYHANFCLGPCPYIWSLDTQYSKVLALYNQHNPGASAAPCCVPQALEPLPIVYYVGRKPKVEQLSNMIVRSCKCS

Substance | Capacity to act as TGF-β1 inhibitor (TGF-β1) | Mean number of tumors per mouse at week 10 post-initiation ([1]; DMBA initiation, disitertide cream as promoter instead of TPA, 12 weeks, tumors >2 mm, week 10) | Mean number of tumors per mouse at week 14 post-initiation ([1]; DMBA initiation, disitertide cream as promoter instead of TPA, 12 weeks, tumors >2 mm, week 14) | Mean number of tumors per mouse at week 25 post-initiation ([1]; DMBA initiation, disitertide cream as promoter instead of TPA, 12 weeks, tumors >2 mm, week 25) | Mean number of tumors per mouse at week 32 post-initiation ([1]; DMBA initiation, disitertide cream as promoter instead of TPA, 12 weeks, tumors >2 mm, week 32) | Tumor induction when disitertide replaces TPA as promoter ([1]; DMBA-initiated mice promoted with disitertide cream for 12 weeks) | Effect on normal skin after repeated applications (normal skin)
P54: mammal homologue peptide of disitertide, SEQ ID NO: 2, amino acids 731-742 of rat type III receptor of TGF-β1 (TSLDATMIWTMM; P54 peptide) | act as TGF-β1 inhibitors | – | – | – | – | – | –
TSLDASIIWAMMQN [disitertide] | – | 0.0 | 0.0 | 0.0 | 0.0 | no tumors were induced | no deleterious effect on normal skin
